Drawing on patent US20210115104A1, “AMYLIN ANALOGUES” (Zealand Pharma A/S, priority 2015, published 2021), this text covers EC50 for five compounds.

*1 amine or outer side, *2 acyl side, *3 side chain or, on linkers, in order; H or OH if unused. Where a SMILES comes first, the peptide text is derived from it. Bridges are numbered along the chain shown (N, C = ends). [ ]: non-standard residue; d: D form. The star is where a group is joined. C20 diacid = O=C(O)CCCCCCCCCCCCCCCCCCC(=O)*; γGlu = O=C(O)[C@H](CCC(=O)[*:2])N[*:1]; Hyp = O=C(O)[C@@H]1C[C@@H](O)CN1; NMeI = CC[C@H](C)[C@H](NC)C(=O)O; Aad = N[C@@H](CCCC(=O)O)C(=O)O; Sar = CNCC(=O)O

This assay has as its target T1, human calcitonin receptor (hCTR2) (Homo sapiens, UniProt P30988).
T1 construct: expressed in transfected cells
T1 sequence (P30988 25-474): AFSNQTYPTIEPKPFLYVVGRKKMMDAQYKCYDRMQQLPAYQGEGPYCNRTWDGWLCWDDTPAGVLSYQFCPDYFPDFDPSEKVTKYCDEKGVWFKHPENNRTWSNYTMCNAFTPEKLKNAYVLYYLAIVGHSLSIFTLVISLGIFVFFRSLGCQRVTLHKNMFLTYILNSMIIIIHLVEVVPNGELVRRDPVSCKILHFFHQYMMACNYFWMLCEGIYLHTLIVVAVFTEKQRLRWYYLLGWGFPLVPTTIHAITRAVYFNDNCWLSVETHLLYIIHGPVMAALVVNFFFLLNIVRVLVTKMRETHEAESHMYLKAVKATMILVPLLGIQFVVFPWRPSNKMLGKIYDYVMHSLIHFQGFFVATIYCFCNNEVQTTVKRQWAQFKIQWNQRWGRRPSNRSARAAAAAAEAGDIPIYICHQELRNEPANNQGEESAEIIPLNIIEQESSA
Kind of assay: hCTR2 cAMP assay (AlphaScreen) in COS7 cells. It counts as cell-based. Particulars: cAMP induction, COS7 cells expressing hCTR2; Table 1; read-out: hCTR2 EC50. An excerpt: The cell line COS7, originating from African Green Monkey kidney fibroblast cells, was used for establishment of the stable cell lines described below. The COS7 cellular background was used due to it being RAMP naïve, and as such it provides the best available system for testing of the monomeric hCTR and different heterodimeric amylin receptor subtypes functionally generated by introduction of the individual RAMPs.
A cell line expressing the human calcitonin receptor (hCTR2) was generated in the COS7 cellular background as stable clones. In brief, hCTR2 (GI: 4502547) was amplified by PCR using primers encoding terminal restriction sites for subcloning. The 5′-end primers additionally encoded a near Kozak consensus sequence to ensure efficient translation. The fidelity of the DNA encoding the receptor was confirmed by DNA sequencing. The PCR products encoding the receptor were subcloned into a mammalian expression vector containing a neomycin (G418) resistance marker. The mammalian expression vector encoding the receptor was transfected into COS7 cells by a standard liposome transfection method. 48 hours post-transfection, cells were seeded for limited dilution cloning and selected with 1 mg/ml G418 in the culture medium. After 3 weeks, surviving colonies of hCTR2-expressing cells were picked, propagated and tested in the amylin efficacy assay as described in Example 3 below. One hCTR2-expressing clone was chosen for compound profiling.
In vitro activity of test peptides at the hCTR2 and hAMYR3 receptors was assessed by measuring the induction of cAMP following stimulation of the receptor using the AlphaScreen® cAMP Assay kit from Perkin-Elmer.
Briefly, COS7 cells expressing hCTR2 (see Example 2, above) were seeded at 30-40,000 cells per well in 96-well microtiter plates coated with 0.01% poly-L-lysine, and grown for 1 day in culture in 100 μl growth medium [DMEM, 10% FCS, Penicillin (100 IU/ml), Streptomycin (100 μg/ml)]. On the day of analysis, growth medium was removed and the cells were washed once with 200 μl Tyrode buffer [Tyrode's Salts (9.6 g/I), 10 mM HEPES, pH 7.4]. Cells were incubated in 100 μl Tyrode buffer containing increasing concentrations of test peptides, 100 µM IBMX and 0.1% casein for 15 min at 37° C. The reaction was stopped by carefully decanting off the compound/buffer medium and replacing it with lysis/detection buffer (80 μl 0.1% w/v BSA, 5 mM HEPES, 0.3% v/v Tween-20 in deionized water). After incubation at room temperature for 10 min., the cAMP content of the resulting cell lysate was estimated according to the AlphaScreen® cAMP Assay manufacturer's instructions. EC50 values were estimated by computer-aided curve fitting using the 4-parameter logistic (4PL) non-linear model.
The term EC50 denotes the concentration needed to bring the measured effect to its halfway point. For `CC[C@H](C)[C@@H](C(=O)N[C@@H](CC(C)C)C(=O)N[C@@H](CO)C(=O)N[C@@H](CO)C(=O)N[C@H](C(=O)N[C@@H](CCC(=O)O)C(=O)N[C@H](C(=O)NCC(=O)N[C@@H](CO)C(=O)N[C@@H](CC(N)=O)C(=O)N[C@H](C(=O)N1CCC[C@H]1C(N)=O)[C@@H](C)O)C(C)C)[C@@H](C)O)N(C)C(=O)[C@H](C)NC(=O)CN(C)C(=O)[C@H](Cc1ccccc1)NC(=O)[C@H](CO)NC(=O)[C@H](CO)NC(=O)[C@H](CCCNC(=N)N)NC(=O)[C@H](CCC(N)=O)NC(=O)[C@H](CC(C)C)NC(=O)[C@H](Cc1ccccc1)NC(=O)[C@H](Cc1c[nH]cn1)NC(=O)[C@H](C)NC(=O)[C@H](CC(C)C)NC(=O)[C@H](CCCNC(=N)N)NC(=O)[C@H](CCC(N)=O)NC(=O)[C@@H](NC(=O)[C@H](C)NC(=O)[C@@H]1CSSC[C@H](NC(=O)[C@H](CCCNC(=N)N)NC(=O)CC[C@H](NC(=O)CCCCCCCCCCCCCCCCCCC(=O)O)C(=O)O)C(=O)N[C@@H](CC(N)=O)C(=O)N[C@@H]([C@@H](C)O)C(=O)N[C@@H](C)C(=O)N[C@@H]([C@@H](C)O)C(=O)N1)[C@@H](C)O` [Compound 61, [19CD]-isoGlu-R-C( )-NTAT-C( )-ATQRLAHFLQRSSF-Gly(Me)-A-Ile(Me)-LSSTEVGSNTP-NH2] ({C20 diacid-γGlu}-RCNTATCATQRLAHFLQRSSF[Sar]A[NMeI]LSSTEVGSNTP-NH2; disulfide 2-7), the 50% effective concentration (EC50) turned out to be 0.12 nM. Consider `CC[C@H](C)[C@@H](C(=O)N[C@@H](CC(C)C)C(=O)N[C@@H](CO)C(=O)N[C@@H](CO)C(=O)N[C@H](C(=O)N[C@@H](CCC(=O)O)C(=O)N[C@H](C(=O)NCC(=O)N[C@@H](CO)C(=O)N[C@@H](CC(N)=O)C(=O)N[C@H](C(=O)N1C[C@H](O)C[C@H]1C(N)=O)[C@@H](C)O)C(C)C)[C@@H](C)O)N(C)C(=O)[C@H](C)NC(=O)CN(C)C(=O)[C@H](Cc1ccccc1)NC(=O)[C@H](CO)NC(=O)[C@H](CO)NC(=O)[C@H](CCCNC(=N)N)NC(=O)[C@H](CCC(N)=O)NC(=O)[C@H](CC(C)C)NC(=O)[C@H](Cc1ccccc1)NC(=O)[C@H](Cc1c[nH]cn1)NC(=O)[C@H](C)NC(=O)[C@H](CC(C)C)NC(=O)[C@H](CCCNC(=N)N)NC(=O)[C@H](CCC(=O)O)NC(=O)[C@@H](NC(=O)[C@H](C)NC(=O)[C@@H]1CSSC[C@H](NC(=O)[C@H](CCCNC(=N)N)NC(=O)CC[C@H](NC(=O)CCCCCCCCCCCCCCCCCCC(=O)O)C(=O)O)C(=O)N2CCC[C@H]2C(=O)N[C@@H]([C@@H](C)O)C(=O)N[C@@H](C)C(=O)N[C@@H]([C@@H](C)O)C(=O)N1)[C@@H](C)O` [Compound 63, [19CD]-isoGlu-R-C( )-PTAT-C( )-ATERLAHFLQRSSF-Gly(Me)-A-Ile(Me)-LSSTEVGSNT-Hyp-NH2] ({C20 diacid-γGlu}-RCPTATCATERLAHFLQRSSF[Sar]A[NMeI]LSSTEVGSNT[Hyp]-NH2; disulfide 2-7), for which the EC50 worked out at 0.35 nM. With `CC[C@H](C)[C@@H](C(=O)N[C@@H](CC(C)C)C(=O)N[C@@H](CO)C(=O)N[C@@H](CO)C(=O)N[C@H](C(=O)N[C@@H](CCC(=O)O)C(=O)N[C@H](C(=O)NCC(=O)N[C@@H](CO)C(=O)N[C@@H](CC(N)=O)C(=O)N[C@H](C(=O)N1CCC[C@H]1C(N)=O)[C@@H](C)O)C(C)C)[C@@H](C)O)N(C)C(=O)[C@H](C)NC(=O)CN(C)C(=O)[C@H](Cc1ccccc1)NC(=O)[C@H](CO)NC(=O)[C@H](CO)NC(=O)[C@H](CCCNC(=N)N)NC(=O)[C@H](CCC(N)=O)NC(=O)[C@H](CC(C)C)NC(=O)[C@H](Cc1ccccc1)NC(=O)[C@H](CC(=O)O)NC(=O)[C@H](C)NC(=O)[C@H](CC(C)C)NC(=O)[C@H](CCCNC(=N)N)NC(=O)[C@H](CCC(=O)O)NC(=O)[C@@H](NC(=O)[C@H](C)NC(=O)[C@@H]1CSSC[C@H](NC(=O)[C@H](CCCNC(=N)N)NC(=O)CC[C@H](NC(=O)CCCCCCCCCCCCCCCCCCC(=O)O)C(=O)O)C(=O)N2CCC[C@H]2C(=O)N[C@@H]([C@@H](C)O)C(=O)N[C@@H](C)C(=O)N[C@@H]([C@@H](C)O)C(=O)N1)[C@@H](C)O` [Compound 67, [19CD]-isoGlu-R-C( )-PTAT-C( )-ATERLADFLQRSSF-Gly(Me)-A-Ile(Me)-LSSTEVGSNTP-NH2] ({C20 diacid-γGlu}-RCPTATCATERLADFLQRSSF[Sar]A[NMeI]LSSTEVGSNTP-NH2; disulfide 2-7), the half-maximal effective concentration (EC50) came out at 0.27 nM.

On to `CC[C@H](C)[C@@H](C(=O)N[C@@H](CC(C)C)C(=O)N[C@@H](CO)C(=O)N[C@@H](CO)C(=O)N[C@H](C(=O)N[C@@H](CCC(=O)O)C(=O)N[C@H](C(=O)NCC(=O)N[C@@H](CO)C(=O)N[C@H](C(=O)N[C@H](C(=O)N1C[C@H](O)C[C@H]1C(N)=O)[C@@H](C)O)[C@@H](C)O)C(C)C)[C@@H](C)O)N(C)C(=O)[C@H](C)NC(=O)CN(C)C(=O)[C@H](Cc1ccccc1)NC(=O)[C@H](CO)NC(=O)[C@H](CO)NC(=O)[C@H](CCCNC(=N)N)NC(=O)[C@H](CCC(N)=O)NC(=O)[C@H](CC(C)C)NC(=O)[C@H](Cc1ccccc1)NC(=O)[C@H](Cc1c[nH]cn1)NC(=O)[C@H](C)NC(=O)[C@H](CC(C)C)NC(=O)[C@H](CCCNC(=N)N)NC(=O)[C@H](CCC(=O)O)NC(=O)[C@@H](NC(=O)[C@H](C)NC(=O)[C@@H]1CSSC[C@H](NC(=O)[C@H](CCCNC(=N)N)NC(=O)CC[C@H](NC(=O)CCCCCCCCCCCCCCCCCCC(=O)O)C(=O)O)C(=O)N2CCC[C@H]2C(=O)N[C@@H]([C@@H](C)O)C(=O)N[C@@H](C)C(=O)N[C@@H]([C@@H](C)O)C(=O)N1)[C@@H](C)O` [Compound 74, [19CD]-isoGlu-R-C( )-PTAT-C( )-ATERLAHFLQRSSF-Gly(Me)-A-Ile(Me)-LSSTEVGSTT-Hyp-NH2] ({C20 diacid-γGlu}-RCPTATCATERLAHFLQRSSF[Sar]A[NMeI]LSSTEVGSTT[Hyp]-NH2; disulfide 2-7), for which the EC50 amounted to 0.58 nM.

With `CC[C@H](C)[C@@H](C(=O)N[C@@H](CC(C)C)C(=O)N[C@@H](CO)C(=O)N[C@@H](CO)C(=O)N[C@H](C(=O)N[C@@H](CCC(=O)O)C(=O)N[C@H](C(=O)NCC(=O)N[C@@H](CO)C(=O)N[C@@H](CCCC(=O)O)C(=O)N[C@H](C(=O)N1C[C@H](O)C[C@H]1C(N)=O)[C@@H](C)O)C(C)C)[C@@H](C)O)N(C)C(=O)[C@H](C)NC(=O)CN(C)C(=O)[C@H](Cc1ccccc1)NC(=O)[C@H](CO)NC(=O)[C@H](CO)NC(=O)[C@H](CCCNC(=N)N)NC(=O)[C@H](CCC(N)=O)NC(=O)[C@H](CC(C)C)NC(=O)[C@H](Cc1ccccc1)NC(=O)[C@H](Cc1c[nH]cn1)NC(=O)[C@H](C)NC(=O)[C@H](CC(C)C)NC(=O)[C@H](CCCNC(=N)N)NC(=O)[C@H](CCC(=O)O)NC(=O)[C@@H](NC(=O)[C@H](C)NC(=O)[C@@H]1CSSC[C@H](NC(=O)[C@H](CCCNC(=N)N)NC(=O)CC[C@H](NC(=O)CCCCCCCCCCCCCCCCCCC(=O)O)C(=O)O)C(=O)N2CCC[C@H]2C(=O)N[C@@H]([C@@H](C)O)C(=O)N[C@@H](C)C(=O)N[C@@H]([C@@H](C)O)C(=O)N1)[C@@H](C)O` [Compound 76, [19CD]-isoGlu-R-C( )-PTAT-C( )-ATERLAHFLQRSSF-Gly(Me)-A-Ile(Me)-LSSTEVGS-Aad-T-Hyp-NH2] ({C20 diacid-γGlu}-RCPTATCATERLAHFLQRSSF[Sar]A[NMeI]LSSTEVGS[Aad]T[Hyp]-NH2; disulfide 2-7), the EC50 came to 0.44 nM.
